Test results reported in patent US20150368195A1, “INDOLINE COMPOUNDS FOR TREATMENT AND/OR PREVENTION OF INFLAMMATION DISEASES” (Taipei Medical University, priority 2014, published 2015).

Experiments:
[1] = tested on: CTGF; experiment: pro-fibrogenic mediator-induced CTGF production, Western blot; type: cell-based, human; conditions: WI-38 lung fibroblasts
Description: (§1) Western blot analysis was performed. First, WI-38 lung fibroblasts were incubated with different concentrations of MPT0E028 (0.01, 0.03, 0.1, 0.3, or 1 μM) (FIG. 10A) or MPT0G009 (0.01, 0.03, 0.1, 0.3, or 1 μM) (FIG. 10B) for 30 min before and during incubation for 2 h with TGF-β (10 ng/mL). WI-38 lung fibroblasts were incubated with 1 μM MPT0E028 and MPT0G009 for 30 min and following another incubation for 2 h with 1 U/ml thrombin (FIG. 10C) and 10 nM ET-1 (FIG. 10D). The collagen I production from WI-38 lung fibroblasts stimulated by 10 ng/mL TGF-β for 24 h was inhibited with 1 μM MPT0E028 and MPT0G009 pretreatment (FIG. 10E).
WI-38 cells, a normal human embryonic lung fibroblast cell line, were obtained from American Type Culture Collection (Manassas, Va.). Cells were grown in MEM nutrient mixture, containing 10% FCS, 2 mM L-glutamine, 0.1 mM NEAA, 1 mM sodium pyruvate, 50 U/ml penicillin G, and 100 μg/ml streptomycin, in a humidified 37° C. incubator with 5% CO2 Cells were used between passages 18 and 30 for all experiments. After reaching confluence, cells were seeded onto 6-cm dishes for immunoblotting.
Western blot analyses were performed as described previously (Chen B C, Chang Y S, Kang J C, Hsu M J, Sheu J R, Chen T L, et al. Peptidoglycan induces nuclear factor-kappaB activation and cyclooxygenase-2 expression via Ras, Raf-1, and ERK in RAW 264.7 macrophages. J Biol Chem 2004; 279:20889-97). Briefly, WI-38 lung fibroblasts were cultured in 6-cm dishes. After reaching confluence, cells were pretreated with specific inhibitors (E028 and G009) as indicated for 30 min, and then treated with the vehicle (H2O) or 10 ng/ml TGF-β for 2 h (CTGF assay) or 24 h (collagen I assay). Whole-cell lysates ([…]) were subjected to 12% (CTGF) or 8% (collagen I) SDS-PAGE, and transferred onto a polyvinylidene difluoride membrane which was then incubated in TBST buffer (150 mM NaCl, 20 mM Tris-HCl, and 0.02% Tween 20; pH 7.4) containing 5% BSA. Proteins were visualized by specific primary antibodies and then incubated with HRP-conjugated secondary antibodies. The immunoreactivity was detected using enhanced chemiluminescence (ECL) following the manufacturer's instructions. Quantitative data were obtained using a computing densitometer with scientific imaging systems (Kodak, Rochester, N.Y.).
To determine whether the inhibitory effects of MPT0E028 and MPT0G009 on pro-fibrogenic mediators (TGF-β, thrombin, and ET-1) were related to the modulation of CTGF and Collagen I production, Western blot analysis was performed. First, WI-38 lung fibroblasts were incubated with different concentrations of MPT0E028 (0.01, 0.03, 0.1, 0.3, or 1 μM) (FIG. 10A) or MPT0G009 (0.01, 0.03, 0.1, 0.3, or 1 μM) (FIG. 10B) for 30 min before and during incubation for 2 h with TGF-β (10 ng/mL). […] Furthermore, we examined the effects of MPT0E028 and MPT0G009 on other pro-fibrogenic mediators. As shown in FIGS. 10C and 10D, WI-38 lung fibroblasts were incubated with 1 μM MPT0E028 and MPT0G009 for 30 min and following another incubation for 2 h with 1 U/ml thrombin (FIG. 10C) and 10 nM ET-1 (FIG. 10D).

[2] = tested on: collagen I; experiment: TGF-β-induced collagen I production, Western blot; type: cell-based, human; conditions: WI-38 lung fibroblasts; 1 μM pretreatment; TGF-β 10 ng/mL 24 h
Description: as §1
WI-38 cells, a normal human embryonic lung fibroblast cell line, were obtained from American Type Culture Collection (Manassas, Va.). […]
Western blot analyses were performed as described previously (Chen B C, Chang Y S, Kang J C, Hsu M J, Sheu J R, Chen T L, et al. Peptidoglycan induces nuclear factor-kappaB activation and cyclooxygenase-2 expression via Ras, Raf-1, and ERK in RAW 264.7 macrophages. J Biol Chem 2004; 279:20889-97). […] The immunoreactivity was detected using enhanced chemiluminescence (ECL) following the manufacturer's instructions. Quantitative data were obtained using a computing densitometer with scientific imaging systems (Kodak, Rochester, N.Y.). […]

SMILES: O=C(/C=C/c1ccc2c(c1)CCN2S(=O)(=O)c1ccccc1)NO [MPT0E028]
- ET-1-induced CTGF expression ([1]; 1 μM, 10 nM ET-1 2 h): inhibited
- thrombin-induced CTGF expression ([1]; 1 μM, 1 U/ml thrombin 2 h): inhibited
- TGF-β-induced CTGF production ([1]; 0.01-1 μM, TGF-β 10 ng/mL 2 h): significantly inhibited
- collagen I production [2]: inhibited
